Columns and labels:
Assay in all cases: radiolabelled phospholipid transfer between donor and acceptor vesicles
Assay type in all cases: biochemical
PFA0210cN123 = molecular target: T1, PFA0210cN123 (Plasmodium falciparum, UniProt Q8I298); details: labelled compound, donor vesicles PC, phosphatidic acid, N-lactosylethanolamine
T1 construct: gene PF3D7_0104200

PFA0210cN99 = molecular target: T2, PFA0210cN99 (Plasmodium falciparum, UniProt Q8I298); details: labelled compound, donor vesicles PC, phosphatidic acid, N-lactosylethanolamine
T2 construct: gene PF3D7_0104200

[1] = molecular target: T3, PITP (rat phosphatidylinositol transfer protein α) (Rattus norvegicus, UniProt P16446); details: labelled compound; positive control protein; vesicles as in the rows above
T3 construct: gene Pitpna
T3 sequence (P16446 2-271): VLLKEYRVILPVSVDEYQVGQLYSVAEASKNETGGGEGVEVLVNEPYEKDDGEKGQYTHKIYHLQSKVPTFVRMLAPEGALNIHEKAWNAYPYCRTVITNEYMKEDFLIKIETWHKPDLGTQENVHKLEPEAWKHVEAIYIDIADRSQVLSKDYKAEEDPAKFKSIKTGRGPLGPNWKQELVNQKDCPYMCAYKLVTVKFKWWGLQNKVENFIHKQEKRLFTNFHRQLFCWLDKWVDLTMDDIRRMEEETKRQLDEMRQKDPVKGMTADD

T2 sequence (Q8I298 entry or part of it): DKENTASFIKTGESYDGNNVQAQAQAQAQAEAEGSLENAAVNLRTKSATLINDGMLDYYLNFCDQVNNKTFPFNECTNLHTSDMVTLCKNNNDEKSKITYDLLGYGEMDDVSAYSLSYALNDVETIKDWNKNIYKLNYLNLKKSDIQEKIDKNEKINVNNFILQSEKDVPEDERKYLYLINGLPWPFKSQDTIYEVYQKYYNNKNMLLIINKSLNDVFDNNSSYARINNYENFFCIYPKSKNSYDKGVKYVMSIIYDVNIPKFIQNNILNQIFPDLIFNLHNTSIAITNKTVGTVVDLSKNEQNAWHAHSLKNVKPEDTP
T1 sequence (Q8I298 entry or part of it): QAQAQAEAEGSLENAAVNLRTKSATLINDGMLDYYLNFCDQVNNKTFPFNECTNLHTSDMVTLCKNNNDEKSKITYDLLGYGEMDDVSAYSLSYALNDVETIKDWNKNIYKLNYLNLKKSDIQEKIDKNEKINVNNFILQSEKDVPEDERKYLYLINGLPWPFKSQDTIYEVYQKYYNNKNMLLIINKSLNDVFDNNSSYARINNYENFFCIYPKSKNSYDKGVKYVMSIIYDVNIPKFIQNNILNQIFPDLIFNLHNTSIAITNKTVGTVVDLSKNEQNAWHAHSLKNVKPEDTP

CCCCCCCCCCCCCCCC(=O)OC[C@H](COP(=O)([O-])OCC[N+](C)(C)C)OC(=O)CCCCCCCCCCCCCCC [L-[α-dipalmitoyl-1-14C]phosphatidylcholine]
radiolabelled phospholipid transfer between donor and acceptor vesicles (PFA0210cN123): (PFA0210cN99, PFA0210cN123, and PFA0210cN144, respectively) as the N-terminal residue can transfer phospholipids
radiolabelled phospholipid transfer between donor and acceptor vesicles (PFA0210cN99): (PFA0210cN99, PFA0210cN123, and PFA0210cN144, respectively) as the N-terminal residue can transfer phospholipids
radiolabelled phospholipid transfer between donor and acceptor vesicles [1]: transferred PC at levels similar to that of the control protein PITP

— publication PMC3814793, “Identification of a Plasmodium falciparum Phospholipid Transfer Protein” (The Journal of Biological Chemistry, 2013)
